Measurements from US20260092071A1, “COMPOUNDS AND COMPOSITIONS AS SMARCA2/4 DEGRADERS AND USES THEREOF” (REGENTS OF THE UNIVERSITY OF MICHIGAN, priority 2022, published 2026).

What was measured:
SMARCA4 = SMARCA4 (Homo sapiens, UniProt P51532); experiment: HiBiT assay for protein degradation, Hela SMARCA4-HiBiT cells (A series); assay type: cell-based; design: fuse HiBiT to the carboxy terminus of SMARCA2 (Promega CS302365) or SMARCA4 (Promega CS3023225); host or cells: HeLa (CRISPR/Cas9 HiBiT knock-in); conditions: Hela SMARCA4-HiBiT cells, 24 hours treatment; for DC50: read-out: SMARC A4 Hela HiBit DC50; for Dmax: read-out: SMARC A4 Hela HiBit Dmax
Procedure, shortened: (§1)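 HeLa cells engineered by CRISPR/Cas9 to carry a HiBiT tag fused to the C-terminus of SMARCA4 (Promega CS3023225) were grown in DMEM supplemented with FBS and penicillin-streptomycin. After compound exposure, remaining SMARCA4 protein was quantified using the Nano-Glo® HiBiT Lytic Detection Assay (Promega N3050), and curves were fitted in GraphPad Prism.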

SMARCA2 = SMARCA2 (Homo sapiens, UniProt P51531); experiment: HiBiT assay for protein degradation, Hela SMARCA2-HiBiT cells (A series); assay type: cell-based; design: Hela cells were genetically modified via CRISPR/Cas9 to fuse HiBiT to the carboxy terminus of SMARCA2; host or cells: HeLa (CRISPR/Cas9 HiBiT knock-in); conditions: Hela SMARCA2-HiBiT cells, 24 hours treatment; for DC50: read-out: SMARC A2 Hela HiBit DC50; for Dmax: read-out: SMARC A2 Hela HiBit Dmax (%);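 for SMARC A2 Hela HiBit Dmax (%): 24 h compound treatment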
Procedure, shortened: as §1, with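 “SMARCA2” for “SMARCA4”, “CS302365)” for “CS3023225)”, “treatment,” for “compound exposure,”, “with” for “using”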

Sequence of SMARCA4 (P51532 whole entry, the tested form may be a part): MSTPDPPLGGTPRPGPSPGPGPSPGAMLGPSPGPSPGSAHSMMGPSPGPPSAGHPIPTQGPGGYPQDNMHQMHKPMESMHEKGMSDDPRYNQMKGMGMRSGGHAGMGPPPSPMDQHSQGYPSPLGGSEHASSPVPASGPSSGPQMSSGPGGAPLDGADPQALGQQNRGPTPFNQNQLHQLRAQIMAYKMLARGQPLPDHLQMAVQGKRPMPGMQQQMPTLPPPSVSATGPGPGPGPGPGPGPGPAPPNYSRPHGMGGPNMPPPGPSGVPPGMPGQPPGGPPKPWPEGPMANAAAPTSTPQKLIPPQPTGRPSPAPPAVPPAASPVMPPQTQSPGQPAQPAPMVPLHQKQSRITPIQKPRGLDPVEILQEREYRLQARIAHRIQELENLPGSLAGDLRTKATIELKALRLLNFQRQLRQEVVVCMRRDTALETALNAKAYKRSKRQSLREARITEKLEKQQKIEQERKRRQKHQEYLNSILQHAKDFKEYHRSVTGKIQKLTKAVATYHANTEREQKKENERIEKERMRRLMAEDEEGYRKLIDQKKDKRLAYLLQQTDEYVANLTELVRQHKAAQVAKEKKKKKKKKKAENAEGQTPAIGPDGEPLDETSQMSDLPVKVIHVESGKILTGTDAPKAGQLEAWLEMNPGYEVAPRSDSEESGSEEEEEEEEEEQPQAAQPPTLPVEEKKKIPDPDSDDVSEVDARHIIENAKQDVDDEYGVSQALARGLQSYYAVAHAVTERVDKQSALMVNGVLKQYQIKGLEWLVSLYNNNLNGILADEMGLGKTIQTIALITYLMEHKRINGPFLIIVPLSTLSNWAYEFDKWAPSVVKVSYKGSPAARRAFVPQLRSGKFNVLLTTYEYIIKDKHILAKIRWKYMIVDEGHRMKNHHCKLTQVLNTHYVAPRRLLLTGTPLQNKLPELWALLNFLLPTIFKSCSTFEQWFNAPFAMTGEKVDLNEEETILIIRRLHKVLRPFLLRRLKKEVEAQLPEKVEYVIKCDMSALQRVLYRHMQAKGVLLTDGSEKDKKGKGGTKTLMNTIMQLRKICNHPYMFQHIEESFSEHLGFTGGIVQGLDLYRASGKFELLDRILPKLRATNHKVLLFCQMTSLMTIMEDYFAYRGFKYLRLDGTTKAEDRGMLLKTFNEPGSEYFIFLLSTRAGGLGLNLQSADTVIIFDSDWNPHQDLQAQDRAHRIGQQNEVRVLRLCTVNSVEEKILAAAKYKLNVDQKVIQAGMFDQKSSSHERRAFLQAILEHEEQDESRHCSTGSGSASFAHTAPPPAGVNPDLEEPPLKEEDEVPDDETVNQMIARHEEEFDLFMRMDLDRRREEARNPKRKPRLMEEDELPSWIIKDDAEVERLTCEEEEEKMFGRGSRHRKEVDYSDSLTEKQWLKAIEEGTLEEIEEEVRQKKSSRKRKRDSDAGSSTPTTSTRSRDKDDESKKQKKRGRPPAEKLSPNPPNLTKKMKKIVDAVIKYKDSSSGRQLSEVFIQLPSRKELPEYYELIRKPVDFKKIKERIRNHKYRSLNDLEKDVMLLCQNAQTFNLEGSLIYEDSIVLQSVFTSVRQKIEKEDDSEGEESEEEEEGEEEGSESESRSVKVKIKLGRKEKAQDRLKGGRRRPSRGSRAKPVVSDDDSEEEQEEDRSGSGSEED
Sequence of SMARCA2 (P51531 whole entry): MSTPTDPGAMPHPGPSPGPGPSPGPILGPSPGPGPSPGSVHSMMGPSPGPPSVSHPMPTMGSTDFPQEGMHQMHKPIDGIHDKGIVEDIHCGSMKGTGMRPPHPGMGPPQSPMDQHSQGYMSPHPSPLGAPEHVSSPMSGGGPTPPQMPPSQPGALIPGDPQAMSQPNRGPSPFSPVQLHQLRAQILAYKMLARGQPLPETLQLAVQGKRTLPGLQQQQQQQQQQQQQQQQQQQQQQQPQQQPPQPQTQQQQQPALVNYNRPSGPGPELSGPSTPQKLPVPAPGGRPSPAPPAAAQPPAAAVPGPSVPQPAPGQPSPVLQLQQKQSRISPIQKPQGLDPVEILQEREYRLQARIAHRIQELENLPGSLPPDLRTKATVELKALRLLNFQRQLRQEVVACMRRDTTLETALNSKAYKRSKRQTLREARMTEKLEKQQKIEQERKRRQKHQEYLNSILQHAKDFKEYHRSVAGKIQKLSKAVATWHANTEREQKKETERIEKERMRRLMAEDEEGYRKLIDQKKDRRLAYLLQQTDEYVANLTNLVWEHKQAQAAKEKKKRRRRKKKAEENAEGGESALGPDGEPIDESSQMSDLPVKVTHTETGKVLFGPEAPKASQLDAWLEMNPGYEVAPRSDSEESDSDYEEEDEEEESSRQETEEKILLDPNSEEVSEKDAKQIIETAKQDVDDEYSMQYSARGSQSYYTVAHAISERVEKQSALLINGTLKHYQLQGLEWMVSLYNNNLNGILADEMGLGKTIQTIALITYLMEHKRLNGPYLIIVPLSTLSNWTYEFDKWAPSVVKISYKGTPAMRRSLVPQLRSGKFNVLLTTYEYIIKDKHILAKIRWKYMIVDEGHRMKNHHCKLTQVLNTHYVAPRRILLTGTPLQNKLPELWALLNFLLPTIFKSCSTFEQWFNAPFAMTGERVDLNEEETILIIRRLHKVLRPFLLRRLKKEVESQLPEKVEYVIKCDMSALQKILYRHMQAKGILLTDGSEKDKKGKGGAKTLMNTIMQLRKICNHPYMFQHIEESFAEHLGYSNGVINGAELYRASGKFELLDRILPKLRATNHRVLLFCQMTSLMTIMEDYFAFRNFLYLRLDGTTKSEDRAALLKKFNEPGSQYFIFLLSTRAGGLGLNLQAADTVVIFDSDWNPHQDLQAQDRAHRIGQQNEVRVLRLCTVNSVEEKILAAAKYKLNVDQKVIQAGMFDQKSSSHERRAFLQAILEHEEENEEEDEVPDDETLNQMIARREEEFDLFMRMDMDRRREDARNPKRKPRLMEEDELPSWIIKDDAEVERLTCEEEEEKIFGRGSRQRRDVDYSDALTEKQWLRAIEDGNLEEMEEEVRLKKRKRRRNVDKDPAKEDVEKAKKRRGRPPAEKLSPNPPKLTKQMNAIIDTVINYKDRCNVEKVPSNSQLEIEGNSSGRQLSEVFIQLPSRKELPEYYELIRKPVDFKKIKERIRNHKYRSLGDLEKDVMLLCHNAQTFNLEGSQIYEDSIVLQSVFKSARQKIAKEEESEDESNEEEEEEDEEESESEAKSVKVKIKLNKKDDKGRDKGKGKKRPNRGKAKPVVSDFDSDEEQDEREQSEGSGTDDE

Compound | DC50 (SMARCA4) [nM] | Dmax (SMARCA4) [%] | DC50 (SMARCA2) [nM] | Dmax (SMARCA2) [%]
Cc1ncsc1-c1ccc([C@H](CN2CCOCC2)NC(=O)[C@@H]2C[C@@H](O)CN2C(=O)[C@@H](n2cc([C@H]3C[C@H](CN4CC5(CCC(c6ccc7c(c6)-n6c(nc(=O)c8c(Cl)cccc86)C76CCCCC6)CC5)C4)C3)nn2)C(C)(C)C)cc1 [Compound A88, (2S,4R)-1-((S)-2-(4-((1r,3S)-3-((7-(4′-chloro-5′-oxo-5′H-spiro[cyclohexane-1,7′-indolo[1,2-a]quinazolin]-10′-yl)-2-azaspiro[3.5]nonan-2-yl)methyl)cyclobutyl)-1H-1,2,3-triazol-1-yl)-3,3-dimethylbutanoyl)-4-hydroxy-N—((R)-1-(4-(4-methylthiazol-5-yl)phenyl)-2-morpholinoethyl)pyrrolidine-2-carboxamide] | 10 to 100 | 70 to 90 | 10 to 100 | > 90
Cc1ncsc1-c1ccc([C@H](C)NC(=O)[C@@H]2C[C@@H](O)CN2C(=O)[C@@H](n2cc([C@H]3CC[C@H](CN4CCC(c5ccc6c(c5)-n5c(nc(=O)c7c(Cl)cccc75)C6(C)C)CC4)CC3)nn2)C(C)(C)C)cc1 [Compound A89, (2S,4R)-1-((S)-2-(4-((1r,4S)-4-((4-(4-chloro-7,7-dimethyl-5-oxo-5,7-dihydroindolo[1,2-a]quinazolin-10-yl)piperidin-1-yl)methyl)cyclohexyl)-1H-1,2,3-triazol-1-yl)-3,3-dimethylbutanoyl)-4-hydroxy-N—((S)-1-(4-(4-methylthiazol-5-yl)phenyl)ethyl)pyrrolidine-2-carboxamide] | > 1000 | 50 to 69 | < 10 | > 90
Cc1ncsc1-c1ccc([C@H](CN2CCOCC2)NC(=O)[C@@H]2C[C@@H](O)CN2C(=O)[C@@H](n2cc([C@H]3CC[C@H](CN4CCC(c5ccc6c(c5)-n5c(nc(=O)c7c(Cl)cccc75)C6(C)C)CC4)CC3)nn2)C(C)(C)C)cc1 [Compound A90] | > 1000 | < 50 | < 10 | > 90
COCCOCCOC[C@H](NC(=O)[C@@H]1C[C@@H](O)CN1C(=O)[C@@H](n1cc([C@H]2CC[C@H](CN3CCC(c4ccc5c(c4)-n4c(nc(=O)c6c(Cl)cccc64)C5(C)C)CC3)CC2)nn1)C(C)(C)C)c1ccc(-c2scnc2C)cc1 [Compound A92] | > 1000 | < 50 | < 10 | 70 to 90
Cc1ncsc1-c1ccc([C@H](CN2CCC(F)(F)CC2)NC(=O)[C@@H]2C[C@@H](O)CN2C(=O)[C@@H](n2cc([C@H]3CC[C@H](CN4CCC(c5ccc6c(c5)-n5c(nc(=O)c7c(Cl)cccc75)C6(C)C)CC4)CC3)nn2)C(C)(C)C)cc1 [Compound A94, (2S,4R)-1-((S)-2-(4-((1r,4S)-4-((4-(4-chloro-7,7-dimethyl-5-oxo-5,7-dihydroindolo[1,2-a]quinazolin-10-yl)piperidin-1-yl)methyl)cyclohexyl)-1H-1,2,3-triazol-1-yl)-3,3-dimethylbutanoyl)-N—((R)-2-(4,4-difluoropiperidin-1-yl)-1-(4-(4-methylthiazol-5-yl)phenyl)ethyl)-4-hydroxypyrrolidine-2-carboxamide] | > 1000 | < 50 | < 10 | > 90
Cc1ncsc1-c1ccc([C@H](CN2CC3(COC3)C2)NC(=O)[C@@H]2C[C@@H](O)CN2C(=O)[C@@H](n2cc([C@H]3CC[C@H](CN4CCC(c5ccc6c(c5)-n5c(nc(=O)c7c(Cl)cccc75)C65CCCCC5)CC4)CC3)nn2)C(C)(C)C)cc1 [Compound A96, (2S,4R)-1-((S)-2-(4-((1r,4S)-4-((4-(4′-chloro-5′-oxo-5′H-spiro[cyclohexane-1,7′-indolo[1,2-a]quinazolin]-10′-yl)piperidin-1-yl)methyl)cyclohexyl)-1H-1,2,3-triazol-1-yl)-3,3-dimethylbutanoyl)-4-hydroxy-N—((R)-1-(4-(4-methylthiazol-5-yl)phenyl)-2-(2-oxa-6-azaspiro[3.3]heptan-6-yl)ethyl)pyrrolidine-2-carboxamide] | > 1000 | 50 to 69 | < 10 | > 90
Cc1ncsc1-c1ccc([C@H](CN2CC3(COC3)C2)NC(=O)[C@@H]2C[C@@H](O)CN2C(=O)[C@@H](n2cc([C@H]3CC[C@H](CN4CCC(c5ccc6c(c5)-n5c(nc(=O)c7c(Cl)cccc75)C6(C)C)CC4)CC3)nn2)C(C)(C)C)cc1 [Compound A98, (2S,4R)-1-((S)-2-(4-((1r,4S)-4-((4-(4-chloro-7,7-dimethyl-5-oxo-5,7-dihydroindolo[1,2-a]quinazolin-10-yl)piperidin-1-yl)methyl)cyclohexyl)-1H-1,2,3-triazol-1-yl)-3,3-dimethylbutanoyl)-4-hydroxy-N—((R)-1-(4-(4-methylthiazol-5-yl)phenyl)-2-(2-oxa-6-azaspiro[3.3]heptan-6-yl)ethyl)pyrrolidine-2-carboxamide] | > 1000 | < 50 | < 10 | > 90

Second part, the compound after the results:

DC50 (SMARCA4) [nM] | Dmax (SMARCA4) [%] | DC50 (SMARCA2) [nM] | Dmax (SMARCA2) [%] | Compound
> 1000 | 50 to 69 | < 10 | > 90 | COCCOCCOC[C@H](NC(=O)[C@@H]1C[C@@H](O)CN1C(=O)[C@@H](n1cc([C@H]2CC[C@H](CN3CCC(c4ccc5c(c4)-n4c(nc(=O)c6c(Cl)cccc64)C54CCCCC4)CC3)CC2)nn1)C(C)(C)C)c1ccc(-c2scnc2C)cc1 [Compound A87, (2S,4R)-1-((S)-2-(4-((1r,4S)-4-((4-(4′-chloro-5′-oxo-5′H-spiro[cyclohexane-1,7′-indolo[1,2-a]quinazolin]-10′-yl)piperidin-1-yl)methyl)cyclohexyl)-1H-1,2,3-triazol-1-yl)-3,3-dimethylbutanoyl)-4-hydroxy-N-(®-2-(2-(2-methoxyethoxy)ethoxy)-1-(4-(4-methylthiazol-5-yl)phenyl)ethyl)pyrrolidine-2-carboxamide]
> 1000 | < 50 | < 10 | > 90 | COCCOC[C@H](NC(=O)[C@@H]1C[C@@H](O)CN1C(=O)[C@@H](n1cc([C@H]2CC[C@H](CN3CCC(c4ccc5c(c4)-n4c(nc(=O)c6c(Cl)cccc64)C5(C)C)CC3)CC2)nn1)C(C)(C)C)c1ccc(-c2scnc2C)cc1 [Compound A91, (2S,4R)-1-((S)-2-(4-((1r,4S)-4-((4-(4-chloro-7,7-dimethyl-5-oxo-5,7-dihydroindolo[1,2-a]quinazolin-10-yl)piperidin-1-yl)methyl)cyclohexyl)-1H-1,2,3-triazol-1-yl)-3,3-dimethylbutanoyl)-4-hydroxy-N-(®-2-(2-methoxyethoxy)-1-(4-(4-methylthiazol-5-yl)phenyl)ethyl)pyrrolidine-2-carboxamide]
> 1000 | < 50 | < 10 | > 90 | Cc1ncsc1-c1ccc([C@H](CN2CC(C)(F)C2)NC(=O)[C@@H]2C[C@@H](O)CN2C(=O)[C@@H](n2cc([C@H]3CC[C@H](CN4CCC(c5ccc6c(c5)-n5c(nc(=O)c7c(Cl)cccc75)C6(C)C)CC4)CC3)nn2)C(C)(C)C)cc1 [Compound A93, (2S,4R)-1-((S)-2-(4-((1r,4S)-4-((4-(4-chloro-7,7-dimethyl-5-oxo-5,7-dihydroindolo[1,2-a]quinazolin-10-yl)piperidin-1-yl)methyl)cyclohexyl)-1H-1,2,3-triazol-1-yl)-3,3-dimethylbutanoyl)-N—((R)-2-(3-fluoro-3-methylazetidin-1-yl)-1-(4-(4-methylthiazol-5-yl)phenyl)ethyl)-4-hydroxypyrrolidine-2-carboxamide]
> 1000 | 50 to 69 | < 10 | > 90 | Cc1ncsc1-c1ccc([C@H](CN2CCC3(COC3)C2)NC(=O)[C@@H]2C[C@@H](O)CN2C(=O)[C@@H](n2cc([C@H]3CC[C@H](CN4CCC(c5ccc6c(c5)-n5c(nc(=O)c7c(Cl)cccc75)C65CCCCC5)CC4)CC3)nn2)C(C)(C)C)cc1 [Compound A97, (2S,4R)-1-((S)-2-(4-((1r,4S)-4-((4-(4′-chloro-5′-oxo-5′H-spiro[cyclohexane-1,7′-indolo[1,2-a]quinazolin]-10′-yl)piperidin-1-yl)methyl)cyclohexyl)-1H-1,2,3-triazol-1-yl)-3,3-dimethylbutanoyl)-4-hydroxy-N—((R)-1-(4-(4-methylthiazol-5-yl)phenyl)-2-(2-oxa-6-azaspiro[3.4]octan-6-yl)ethyl)pyrrolidine-2-carboxamide]
